This note sets out measurements from PubChem BioAssay (NCI).

Test systems include SK-OV-3 ovarian; NCI-H460 lung; PC-3 prostate; SK-MEL-5 melanoma; NCI-H23 lung; NCI-H522 lung; UO-31 renal; A498 renal; TK-10 renal; RXF 393 renal.
What all share (experiment): NCI anticancer screen, dose series, 48 h

Where “and” joins values, the source holds several entries; their conditions need not be identical. Identical values can stand only once.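 How tested: cells in 96-well plates exposed to compound for 48 hours at five concentrations. At the GI50, growth is halved. TGI denotes the concentration required for complete inhibition of growth.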 Where only a bound is given, the exact number is not on record here.

As to `Cc1ccc2c(C)c3c(ccc4ccccc43)c[n+]2c1`, the GI50 in the assay on SK-OV-3 ovarian is 18.6 µM; in the assay with NCI-H460 lung, 5.1 µM; in the assay with PC-3 prostate it was 7.15 µM; in the assay with SK-MEL-5 melanoma it was 2.25 µM; in the assay on NCI-H23 lung, 3.96 µM; in the assay with NCI-H522 lung, 15.5 µM. The GI50 in the assay on UO-31 renal was 27.8 µM; with A498 renal, 5.85 µM; in the assay on TK-10 renal, 68.3 µM; in the assay with RXF 393 renal, 41.5 µM. Besides, the TGI in the assay with SK-OV-3 ovarian was 57.2 µM; with NCI-H460 lung, 25.1 µM; with PC-3 prostate it was 41 µM; in the assay with SK-MEL-5 melanoma, 10.4 µM; with NCI-H23 lung, 38.6 µM; in the assay on NCI-H522 lung it was 38.8 µM. Further, the TGI with UO-31 renal, in the assay on A498 renal, with TK-10 renal and in the assay with RXF 393 renal was > 100 µM each time.

As for `Cc1ccc(CN2CCC(C(=O)Nc3ccc(-c4cc5ccccc5[nH]4)cc3)CC2)o1`, the GI50 in the assay on SK-OV-3 ovarian is > 100 µM; in the assay with NCI-H460 lung, > 100 µM; in the assay on PC-3 prostate it was > 100 µM; with SK-MEL-5 melanoma, 46.6 µM; in the assay with NCI-H23 lung it was > 100 µM; in the assay on NCI-H522 lung, > 100 µM. For the same molecule, the GI50 in the assay with UO-31 renal was > 100 µM; in the assay with A498 renal, 4.04 µM; with TK-10 renal, > 100 µM; in the assay with RXF 393 renal, > 100 µM. The TGI in the assay with SK-OV-3 ovarian, in the assay on NCI-H460 lung, in the assay with PC-3 prostate, in the assay on SK-MEL-5 melanoma, in the assay with NCI-H23 lung and in the assay with NCI-H522 lung was > 100 µM throughout. In addition, the TGI with UO-31 renal, with A498 renal, in the assay with TK-10 renal and in the assay with RXF 393 renal was > 100 µM in each case.

With `CN1CCN(C2=NCCO2)CC1`, the TGI in the assay with SK-OV-3 ovarian, with NCI-H460 lung, in the assay on PC-3 prostate, with SK-MEL-5 melanoma, in the assay with NCI-H23 lung and with NCI-H522 lung was > 100 µM in each case. Also, the TGI with UO-31 renal, with A498 renal, in the assay on TK-10 renal and in the assay with RXF 393 renal was > 100 µM each time.

As to `CC1CCc2nc[nH]c(=O)c21` (stereo not given), the GI50 in the assay on SK-OV-3 ovarian, in the assay on NCI-H460 lung, in the assay on PC-3 prostate, in the assay on SK-MEL-5 melanoma, with NCI-H23 lung and in the assay with NCI-H522 lung was > 100 µM throughout. The GI50 in the assay with UO-31 renal, in the assay with A498 renal, in the assay on TK-10 renal and in the assay with RXF 393 renal was > 100 µM each time. The TGI in the assay with SK-OV-3 ovarian, in the assay with NCI-H460 lung, in the assay with PC-3 prostate, with SK-MEL-5 melanoma, in the assay on NCI-H23 lung and in the assay with NCI-H522 lung was > 100 µM in each case. Also, the TGI with UO-31 renal, with A498 renal, with TK-10 renal and with RXF 393 renal was > 100 µM in each case.

As to `Cc1ccnc2c1ccc1c(C)ccnc12`, the GI50 in the assay on SK-OV-3 ovarian was 0.526 µM; in the assay with NCI-H460 lung, 0.339 µM; in the assay on PC-3 prostate, 0.43 µM; with SK-MEL-5 melanoma, 0.303 µM; in the assay on NCI-H23 lung it was 0.741 µM; in the assay on NCI-H522 lung it was 0.608 µM. Also, the GI50 is 0.246 µM with UO-31 renal, 0.327 µM in the assay with A498 renal, 0.588 µM with TK-10 renal and 0.729 µM with RXF 393 renal. Further, the TGI with SK-OV-3 ovarian was found to be 9.61 µM; in the assay on NCI-H460 lung it was 11.3 µM; with PC-3 prostate it was 15.5 µM; in the assay with SK-MEL-5 melanoma it was 11.8 µM; in the assay with NCI-H23 lung, 20.2 µM; in the assay on NCI-H522 lung, 4.97 µM. Further, the TGI in the assay on UO-31 renal came to 2.91 µM; with A498 renal it was 3.71 µM; in the assay with TK-10 renal it was 14.6 µM; in the assay with RXF 393 renal, 15.1 µM.

On to `C[C@@H](Oc1cc(-n2cnc3ccc(CN4CCN(C)CC4)cc32)sc1C(N)=O)c1ccccc1C(F)(F)F`, for which the GI50 in the assay with SK-OV-3 ovarian is 0.025 µM and 0.0673 µM; with NCI-H460 lung, < 0.0157 µM and 0.0224 µM; in the assay on PC-3 prostate it was < 0.0192 µM and 0.0293 µM; in the assay with SK-MEL-5 melanoma it was 0.0218 µM and 0.0976 µM; in the assay on NCI-H23 lung, < 0.0114 µM and 0.0145 µM; in the assay with NCI-H522 lung it was < 0.01 µM and 0.00531 µM. For the same molecule, the GI50 in the assay on UO-31 renal was 1.67 µM and 0.776 µM; with A498 renal, 0.0615 µM and 0.0341 µM; with TK-10 renal, 2.69 µM and 1.46 µM; in the assay on RXF 393 renal, < 0.0141 µM and 0.0224 µM. Also, the TGI was 1.67 µM and > 10 µM in the assay with SK-OV-3 ovarian; 12.5 µM and > 10 µM in the assay on NCI-H460 lung; 15.5 µM and > 10 µM in the assay on PC-3 prostate; 1.51 µM and > 10 µM in the assay with SK-MEL-5 melanoma; 13.2 µM and > 10 µM in the assay on NCI-H23 lung; 0.0369 µM with NCI-H522 lung. In addition, the TGI was 16.6 µM and > 10 µM in the assay with UO-31 renal; 0.982 µM and 0.187 µM with A498 renal; 17.3 µM and > 10 µM in the assay with TK-10 renal; 10.2 µM and > 10 µM in the assay on RXF 393 renal.

On to `O=C1CC(NC(=O)C(F)(F)F)c2c(Br)sc(N3CCNCC3)c21` (stereo not given), for which the TGI in the assay on SK-OV-3 ovarian, in the assay with NCI-H460 lung, in the assay on PC-3 prostate, in the assay on SK-MEL-5 melanoma, with NCI-H23 lung and in the assay on NCI-H522 lung was > 100 µM throughout. Besides, the TGI with UO-31 renal, in the assay with A498 renal, with TK-10 renal and with RXF 393 renal was > 100 µM each time.
